Results: US4264590A, “Antibacterial peptide” (Abbott Laboratories, priority 1980, dated 1981)

What was measured:
E. coli (Juhl) [1] = experiment: serial dilution in synthetic medium in test tubes, MIC and F.I.C. index (Table II); format: cell-based; conditions: for MIC ppm Antibiotic: antibiotic alone
Description: The halogenated peptides alone, the antibiotic alone or mixtures of the halogenated peptides and selected antibiotics are prepared in sterile concentrated aqueous solutions at the desired ratios. Serial dilutions are made to give a range of concentrations of the test substances. Samples of the dilutions are mixed with an appropriate sterile synthetic medium in test tubes. The tubes are then inoculated with an appropriate test organism and incubated at 35°-37° C. for 16-20 hours. Minimum inhibitory concentrations, i.e., that concentration which inhibits visible growth, are read and the fractional inhibitory concentration indices (F.I.C.) are calculated. In all instances, E. coli (Juhl) was used as the infecting microorganism.

E. coli (Juhl) [2] = experiment: mouse protection test, CD50 (Table III); format: in vivo
Description: (§1) Charles River mice, weighing approximately 20 g. each, are infected intraperitoneally with 10-100 times the LD of the infecting organism. At predetermined intervals post-infection, e.g., 1 and 5 hours, mice are dosed subcutaneously with graded doses of the halogenated peptide, antibiotic and combination thereof. The number of mice surviving each treatment for 7 days post-infection is observed and the CD50 is calculated. The fractional inhibitory concentration (F.I.C.) for each combination is calculated in the usual manner.
(§2) In this table, the following infecting microorganisms were used:
(§3) The infecting organisms are listed by the above code; the compounds are listed by their Example number. In all instances, the dipeptide and D-cycloserine were tested at a ratio of 10:1. The CD50 combination column lists only the amount of peptide present; the D-cycloserine amount is 10% of the listed amount.

S. aureus (Smith) = experiment: mouse protection test, CD50 (Table III); format: in vivo; conditions: for F.I.C. Index / CD50 (mg/kg) Combination: S. aureus (Smith) in mice, dipeptide:D-cycloserine 10:1; for CD50 (mg/kg) Combination: amount of peptide only listed, D-cycloserine is 10% of it; for CD50 (mg/kg) Peptide: mice infected i.p. with S. aureus (Smith), dosed subcutaneously, 7 days survival, peptide alone
Description: as §1, §2, §3

[3] = combination with D-cycloserine, ratio Pep/Antib. 1:8
[4] = E. coli (Juhl), 35-37° C., 16-20 hours

SMILES	F.I.C. Index (S. aureus (Smith))	CD50 (mg/kg) Combination (S. aureus (Smith))	CD50 (mg/kg) Peptide (S. aureus (Smith))	further results
N[C@@H](CCC(=O)O)C(=O)N[C@H](CF)C(=O)O [Example 9, L-Glu-βF-D-Ala]	0.30	7.6 mg/kg	28.5 mg/kg	F.I.C. Index (E. coli (Juhl) [1]; [3]): 0.50; MIC ppm Pep/Antib., antibiotic part (E. coli (Juhl) [1]; [3]): 3.1 ppm; MIC ppm Pep/Antib., peptide part (E. coli (Juhl) [1]; [3]): 0.39 ppm; MIC ppm Peptide (E. coli (Juhl) [1]; peptide alone, E. coli (Juhl), 35-37° C., 16-20 hours): > 800 ppm; F.I.C. Index (E. coli (Juhl) [2]; E. coli (Juhl) in mice, dipeptide:D-cycloserine 10:1): 0.96; CD50 (mg/kg) Combination (E. coli (Juhl) [2]; E. coli (Juhl) in mice, dipeptide:D-cycloserine 10:1, amount of peptide only listed, D-cycloserine is 10% of it): 72 mg/kg; CD50 (mg/kg) Peptide (E. coli (Juhl) [2]; mice infected i.p. with E. coli (Juhl), dosed subcutaneously, 7 days survival, peptide alone): 81 mg/kg
NCC(=O)N[C@H](CF)C(=O)O [Example 10, Gly-βF-D-Ala]	0.27	4.7 mg/kg	19 mg/kg	–
CNCC(=O)N[C@H](CF)C(=O)O [Example 11, Sar-βF-D-Ala]	0.24	6.2 mg/kg	29 mg/kg	–
NCC(=O)N[C@H](CCl)C(=O)O [Example 12, Gly-βCl-D-Ala]	0.30	17.4 mg/kg	155 mg/kg	–
COC(=O)[C@@H](CF)NC(=O)[C@H](C)N.Cl [Example 15, L-Ala-βF-D-Ala-OMe.HCl]	0.32	5.5 mg/kg	18 mg/kg	–
CCC(N)C(=O)N[C@H](CF)C(=O)O (stereo partly drawn) [Example 17, L-αNH2 -But-βF-D-Ala]	0.20	2.6 mg/kg	13.7 mg/kg	–
CCCCCCC(N)C(=O)N[C@H](CF)C(=O)O (stereo partly drawn) [Example 20, D,L-α-amino-octanoyl-βF-D-Ala]	0.10	8.6 mg/kg	75.9 mg/kg	–
CC1(C)S[C@@H]2[C@H](NC(=O)C(C(=O)O)c3ccccc3)C(=O)N2[C@H]1C(=O)O (stereo partly drawn) [carbencillin, reference compound]	–	–	–	MIC ppm Antibiotic (E. coli (Juhl) [1]; [4]): 6.2 ppm
CC(=O)OCC1=C(C(=O)O)N2C(=O)[C@@H](NC(=O)Cc3cccs3)[C@H]2SC1 [cephalothin, reference compound]	–	–	–	MIC ppm Antibiotic (E. coli (Juhl) [1]; [4]): 6.2 ppm
